Among the data in US12358886B2, “Heterocyclic compounds for use in the treatment of cancer” (Artios Pharma Limited, priority 2019, dated 2025) are IC50 values, retold here.

Polθ protein (amino acids 2-2590), sequence (O75417 2-2590): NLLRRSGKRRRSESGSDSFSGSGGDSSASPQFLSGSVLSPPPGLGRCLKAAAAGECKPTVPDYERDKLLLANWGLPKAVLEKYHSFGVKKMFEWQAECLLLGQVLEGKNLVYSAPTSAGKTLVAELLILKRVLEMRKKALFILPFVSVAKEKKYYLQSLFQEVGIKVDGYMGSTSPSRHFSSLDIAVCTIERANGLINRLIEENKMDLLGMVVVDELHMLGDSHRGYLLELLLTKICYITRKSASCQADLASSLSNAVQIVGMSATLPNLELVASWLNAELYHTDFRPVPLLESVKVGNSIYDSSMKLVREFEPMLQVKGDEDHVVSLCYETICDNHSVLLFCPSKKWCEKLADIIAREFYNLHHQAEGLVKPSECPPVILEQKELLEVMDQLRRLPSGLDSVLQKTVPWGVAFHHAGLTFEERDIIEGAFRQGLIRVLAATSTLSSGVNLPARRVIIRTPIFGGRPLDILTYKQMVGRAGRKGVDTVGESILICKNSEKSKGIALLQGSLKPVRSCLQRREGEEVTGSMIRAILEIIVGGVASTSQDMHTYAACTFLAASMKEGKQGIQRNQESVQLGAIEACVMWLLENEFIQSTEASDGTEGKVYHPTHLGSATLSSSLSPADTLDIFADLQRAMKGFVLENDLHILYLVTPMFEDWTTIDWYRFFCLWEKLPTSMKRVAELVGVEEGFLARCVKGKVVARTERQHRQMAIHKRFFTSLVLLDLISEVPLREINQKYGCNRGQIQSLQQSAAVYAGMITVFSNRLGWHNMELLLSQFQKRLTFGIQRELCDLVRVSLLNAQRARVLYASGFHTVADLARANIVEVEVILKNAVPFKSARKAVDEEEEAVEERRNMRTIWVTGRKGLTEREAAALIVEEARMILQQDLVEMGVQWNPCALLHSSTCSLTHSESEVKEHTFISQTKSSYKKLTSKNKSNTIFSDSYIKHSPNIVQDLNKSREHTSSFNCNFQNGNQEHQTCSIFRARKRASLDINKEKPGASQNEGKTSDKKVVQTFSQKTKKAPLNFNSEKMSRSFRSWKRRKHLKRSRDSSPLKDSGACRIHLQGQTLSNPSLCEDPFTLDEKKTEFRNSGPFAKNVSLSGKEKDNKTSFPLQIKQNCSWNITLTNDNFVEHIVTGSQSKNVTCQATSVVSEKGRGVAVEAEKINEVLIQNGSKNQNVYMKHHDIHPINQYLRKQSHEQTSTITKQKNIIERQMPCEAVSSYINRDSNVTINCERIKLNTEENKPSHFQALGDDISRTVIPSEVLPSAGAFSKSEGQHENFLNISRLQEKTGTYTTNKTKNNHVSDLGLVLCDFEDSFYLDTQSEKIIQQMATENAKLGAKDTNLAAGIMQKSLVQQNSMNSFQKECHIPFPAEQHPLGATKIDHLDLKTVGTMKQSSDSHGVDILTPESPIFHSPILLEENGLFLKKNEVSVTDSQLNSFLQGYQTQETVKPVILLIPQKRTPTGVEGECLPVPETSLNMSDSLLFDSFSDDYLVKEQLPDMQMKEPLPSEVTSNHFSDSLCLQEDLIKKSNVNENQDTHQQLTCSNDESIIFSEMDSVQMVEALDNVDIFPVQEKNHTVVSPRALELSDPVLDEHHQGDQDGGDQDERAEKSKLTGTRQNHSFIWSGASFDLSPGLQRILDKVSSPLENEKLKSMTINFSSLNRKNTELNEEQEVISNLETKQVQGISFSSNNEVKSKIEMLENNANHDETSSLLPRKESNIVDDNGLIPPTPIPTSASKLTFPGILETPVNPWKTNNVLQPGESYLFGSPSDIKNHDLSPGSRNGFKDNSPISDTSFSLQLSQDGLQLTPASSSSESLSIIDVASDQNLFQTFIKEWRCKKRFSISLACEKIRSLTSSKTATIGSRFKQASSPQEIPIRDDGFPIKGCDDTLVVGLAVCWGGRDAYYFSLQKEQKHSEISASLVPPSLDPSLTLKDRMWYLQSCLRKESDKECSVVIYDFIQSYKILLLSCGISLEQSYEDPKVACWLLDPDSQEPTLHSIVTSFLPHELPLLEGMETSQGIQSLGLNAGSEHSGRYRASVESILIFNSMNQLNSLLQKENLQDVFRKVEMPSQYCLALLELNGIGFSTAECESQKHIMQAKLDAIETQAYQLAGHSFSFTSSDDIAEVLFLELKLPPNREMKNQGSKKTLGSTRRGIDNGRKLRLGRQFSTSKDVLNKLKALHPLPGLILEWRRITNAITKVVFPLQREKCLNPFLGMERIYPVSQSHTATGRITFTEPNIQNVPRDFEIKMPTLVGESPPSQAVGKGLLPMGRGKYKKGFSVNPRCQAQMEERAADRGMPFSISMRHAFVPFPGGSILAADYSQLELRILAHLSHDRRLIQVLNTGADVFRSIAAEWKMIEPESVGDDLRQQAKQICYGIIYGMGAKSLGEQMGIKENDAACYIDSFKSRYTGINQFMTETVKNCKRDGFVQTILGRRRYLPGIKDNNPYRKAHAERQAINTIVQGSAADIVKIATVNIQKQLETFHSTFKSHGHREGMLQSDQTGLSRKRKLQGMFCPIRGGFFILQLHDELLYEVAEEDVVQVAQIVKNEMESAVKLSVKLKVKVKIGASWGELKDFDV

The experiment addresses Polθ protein (amino acids 2-2590) (Homo sapiens, UniProt O75417). Put plainly: Polθ full length enzyme potency assay (PicoGreen). The following applies: Polθ IC50 (nM), full length N-His, C-term FLAG tagged Polθ, PicoGreen fluorescence, 12 point concentration response.
On to `CCN(C(=O)[C@@H]1C[C@H](N2CCOC(CO)C2)CN1c1nc(C)cc(C(F)(F)F)c1C#N)c1ccc(Cl)c(Cl)c1` (stereo partly drawn) [Example 148, (2S,4S)-1-(3-Cyano-6-methyl-4-(trifluoromethyl)pyridin-2-yl)-N-(3,4-dichlorophenyl)-N-ethyl-4-(2-(hydroxymethyl)-morpholino)pyrrolidine-2-carboxamide], for which inhibition was half-maximal at 6 nM (IC50).
The result for `CN(C(=O)[C@@H]1COC(=O)N1c1cc(C(C)(C)C)cc(Cl)n1)c1ccc(F)c(Cl)c1` [Example 122, (S)-3-(4-(tert-Butyl)-6-chloropyridin-2-yl)-N-(3-chloro-4-fluorophenyl)-N-methyl-2-oxooxazolidine-4-carboxamide] reads 41 nM; that for `Cc1cccc(N(C)C(=O)[C@@H]2C[C@H](O)CN2c2nc(C)cc(C)c2C#N)c1` [Example 9, (2S,4S)-1-(3-Cyano-4,6-dimethylpyridin-2-yl)-4-hydroxy-N-methyl-N-(m-tolyl)pyrrolidine-2-carboxamide], 87 nM.
Compound `Cc1cc(C(F)(F)F)cc(N2C(=O)N(CCOS(N)(=O)=O)C[C@H]2C(=O)N(C)c2ccc(F)c(Cl)c2F)n1` [Example 227, (S)-2-(4-((3-Chloro-2,4-difluorophenyl)(methyl)carbamoyl)-3-(6-methyl-4-(trifluoromethyl)pyridin-2-yl)-2-oxoimidazolidin-1-yll sulfamate] returned an IC50 of 6 nM.
The compound `CCN(C(=O)[C@@H]1C[C@H](N2CCOC(CO)C2)CN1c1nc(C)cc(C(F)(F)F)c1C#N)c1cccc(Cl)c1` (stereo partly drawn) [Example 147, (2S,4S)-N-(3-Chlorophenyl)-1-(3-cyano-6-methyl-4-(trifluoromethyl)pyridin-2-yl)-N-ethyl-4-(2-(hydroxymethyl)morpholino)pyrrolidine-2-carboxamide] yielded an IC50 of 28 nM.
The result for `CCc1cc(N(C)C(=O)[C@@H]2COC(=O)N2c2cc(C(F)(F)F)cc(C)n2)ccc1F` [Example 110, (S)—N-(3-Ethyl-4-fluorophenyl)-N-methyl-3-(6-methyl-4-(trifluoromethyl)pyridin-2-yl)-2-oxo-oxazolidine-4-carboxamide] reads 21 nM; that for `Cc1cc(C(F)(F)F)cc(N2C(=O)[C@@H](O)[C@@H](O)[C@H]2C(=O)N(C)c2ccc(F)c(C)c2)n1` [Example 67, (2S,3S,4S)-N-(4-Fluoro-3-methyl-phenyl)-3,4-dihydroxy-N-methyl-1-(6-methyl-4-(trifluoromethyl)pyridin-2-yl)-5-oxopyrrolidine-2-carboxamide], 6 nM.
The result for `CCN(C(=O)[C@@H]1C[C@H](N(C)[C@@H]2CCC[C@H]2O)CN1c1cc(C(F)(F)F)cc(C)n1)c1ccc(F)c(F)c1` [Example 141, (2S,4S)-N-(3,4-Difluorophenyl)-N-ethyl-4-(((1R,2R)-2-hydroxycyclopentyl)(methyl)amino)-1-(6-methyl-4-(trifluoromethyl)pyridin-2-yl)pyrrolidine-2-carboxamide] reads 56 nM.
The result for `Cc1cc(Br)cc(N2C(=O)OC[C@H]2C(=O)N(C)c2ccc(F)c(Cl)c2)n1` [Example 116, (S)-3-(4-Bromo-6-methylpyridin-2-yl)-N-(3-chloro-4-fluorophenyl)-N-methyl-2-oxooxazolidine-4-carboxamide] reads 71 nM; that for `Cc1cc(C(F)(F)F)cc(N2C(=O)N(CCN3CCC(C#N)CC3)C[C@H]2C(=O)N(C)c2ccc(F)c(Cl)c2F)n1` [Example 211, (S)-N-(3-Chloro-2,4-difluorophenyl)-1-(2-(4-cyanopiperidin-1-yl)ethyl)-N-methyl-3-(6-methyl-4-(trifluoromethyl)pyridin-2-yl)-2-oxoimidazolidine-4-carboxamide], 5 nM; that for `CCN(C(=O)[C@@H]1C[C@@H](N)CN1c1nc(C)cc(C)c1C#N)c1cccc(C)c1` [Example 40, (2S,4R)-4-Amino-1-(3-cyano-4,6-dimethylpyridin-2-yl)-N-ethyl-N-(m-tolyl)pyrrolidine-2-carboxamide], 1760 nM.
Consider `COc1cc(N(C)C(=O)[C@@H]2COC(=O)N2c2cc(C(F)(F)F)cc(C)n2)ccc1Cl` [Example 91, (S)-N-(4-Chloro-3-methoxyphenyl)-N-methyl-3-(6-methyl-4-(trifluoromethyl)pyridin-2-yl)-2-oxooxazolidine-4-carboxamide], for which inhibition was half-maximal at 81 nM (IC50).
Regarding `Cc1cc(C(F)(F)F)cc(N2C(=O)OC[C@H]2C(=O)N(C)c2ccc(F)c(C)c2F)n1` [Example 100, (S)-N-(2,4-Difluoro-3-methylphenyl)-N-methyl-3-(6-methyl-4-(trifluoromethyl)pyridin-2-yl)-2-oxooxazolidine-4-carboxamide], it took 4 nM to reach half-maximal inhibition (IC50).
The result for `Cc1cc(C(F)(F)F)cc(N2C(=O)N(CCN3CCC3)C[C@H]2C(=O)N(C)c2ccc(F)c(Cl)c2)n1` [Example 200, (S)-1-(2-(Azetidin-1-yl)ethyl)-N-(3-chloro-4-fluorophenyl)-N-methyl-3-(6-methyl-4-(trifluoromethyl)pyridin-2-yl)-2-oxoimidazolidine-4-carboxamide] reads 12 nM; that for `Cc1cccc(N(C)C(=O)[C@@H]2[C@H](O)CCN2c2nc(C)cc(C(F)(F)F)c2C#N)c1` [Example 24, (2S,3R)-1-(3-Cyano-6-methyl-4-(trifluoromethyl)pyridin-2-yl)-3-hydroxy-N-methyl-N-(m-tolyl)pyrrolidine-2-carboxamide], 9 nM; that for `Cc1cccc(N(C)C(=O)[C@@H]2C[C@H](O)CN2c2nc(N(C)C)cc(C(F)(F)F)c2C#N)c1` [Example 32, (2S,4S)-1-(3-Cyano-6-(dimethylamino)-4-(trifluoromethyl)pyridin-2-yl)-4-hydroxy-N-methyl-N-(m-tolyl)pyrrolidine-2-carboxamide], 209 nM.
As to `Cc1cc(C(F)(F)F)cc(N2C(=O)N(CCN3CCC3CO)C[C@H]2C(=O)N(C)c2ccc(F)c(Cl)c2F)n1` (stereo partly drawn) [Example 203, (4S)-N-(3-Chloro-2,4-difluoro-phenyl)-1-(2-(2-(hydroxymethyl)-azetidin-1-yl)-ethyl)-N-methyl-3-(6-methyl-4-(trifluoromethyl)pyridin-2-yl)-2-oxoimidazolidine-4-carboxamide], the IC50 turned out to be 10 nM.
`Cc1cc(C(F)(F)F)c(C#N)c(N2CCC[C@H]2C(=O)N(C)c2ccccc2)n1` [Example 1, (S)-1-(3-Cyano-6-methyl-4-(trifluoromethyl)pyridin-2-yl)-N-methyl-N-phenylpyrrolidine-2-carboxamide] showed an IC50 of 72 nM.
`CNc1cccc(N(C)C(=O)[C@@H]2COC(=O)N2c2cc(C(F)(F)F)cc(C)n2)n1` [Example 176, (S)—N-Methyl-3-(6-methyl-4-(trifluoromethyl)pyridin-2-yl)-N-(6-(methylamino)pyridin-2-yl)-2-oxooxazolidine-4-carboxamide]: the IC50 stood at 94 nM.
In the case of `Cc1cc(C(F)(F)F)cc(N2C(=O)N(CC3CN(C)CCO3)C[C@H]2C(=O)N(C)c2ccc(F)c(Cl)c2F)n1` (stereo partly drawn) [Example 219, (4S)—N-(3-Chloro-2,4-difluorophenyl)-N-methyl-3-(6-methyl-4-(trifluoromethyl)pyridin-2-yl)-1-((4-methylmorpholin-2-yl)methyl)-2-oxoimidazolidine-4-carboxamide], the IC50 stood at 11 nM.
`Cc1cc(C(F)(F)F)cc(N2C(=O)OC[C@H]2C(=O)N(C)c2ccc(F)c(C)c2)n1` [Example 86, (S)-N-(4-Fluoro-3-methylphenyl)-N-methyl-3-(6-methyl-4-(trifluoromethyl)pyridin-2-yl)-2-oxooxazolidine-4-carboxamide] yielded an IC50 of 9 nM.
Take `Cc1cc(C(F)(F)F)cc(N2C(=O)N(CC3CN(C)C3)C[C@H]2C(=O)N(C)c2ccc(F)c(Cl)c2F)n1` [Example 189, (S)—N-(3-Chloro-2,4-difluorophenyl)-N-methyl-3-(6-methyl-4-(trifluoromethyl)pyridin-2-yl)-1-((1-methylazetidin-3-yl)methyl)-2-oxoimidazolidine-4-carboxamide]: the IC50 turned out to be 32 nM.
In the case of `Cc1cc(C(F)(F)F)cc(N2C(=O)[C@H](CN(C)C)C[C@@H]2C(=O)N(C)c2ccc(F)c(Cl)c2)n1` (stereo in doubt) [Example 78, (2R,4S)—N-(3-Chloro-4-fluorophenyl)-4-((dimethylamino)methyl)-N-methyl-1-(6-methyl-4-(trifluoromethyl)pyridin-2-yl)-5-oxopyrrolidine-2-carboxamide] it was 48 nM.
The compound `CCN(C(=O)[C@@H]1CNC(=O)N1c1cc(C(F)(F)F)cc(C)n1)c1ccc(F)c(Cl)c1` [Example 157, (S)—N-(3-Chloro-4-fluorophenyl)-N-ethyl-3-(6-methyl-4-(trifluoromethyl)pyridin-2-yl)-2-oxoimidazolidine-4-carboxamide] displayed an IC50 of 32 nM.
In the case of `C=C(C)c1cc(C)nc(N2C(=O)OC[C@H]2C(=O)N(C)c2ccc(F)c(Cl)c2)c1` [Example 117, (S)—N-(3-Chloro-4-fluorophenyl)-N-methyl-3-(6-methyl-4-(prop-1-en-2-yl)pyridin-2-yl)-2-oxooxazolidine-4-carboxamide] it was 61 nM; in that of `COc1cc(N(C)C(=O)[C@@H]2COC(=O)N2c2cc(C(F)(F)F)cc(C)n2)ccc1C` [Example 92, (S)-N-(3-Methoxy-4-methylphenyl)-N-methyl-3-(6-methyl-4-(trifluoromethyl)pyridin-2-yl)-2-oxooxazolidine-4-carboxamide], 18 nM; in that of `Cc1cccc(N(C)C(=O)[C@@H]2[C@H](O)[C@H](O)CN2c2nc(C)cc(C)c2C#N)c1` [Example 55, (2S,3S,4R)-1-(3-Cyano-4,6-dimethyl-pyridin-2-yl)-3,4-dihydroxy-N-methyl-N-(m-tolyl)-pyrrolidine-2-carboxamide], 118 nM.
The result for `Cc1cc(C(F)(F)F)cc(N2C(=O)N(CC(N)=O)C[C@H]2C(=O)N(C)c2ccc(F)c(Cl)c2)n1` [Example 184, (S)-1-(2-Amino-2-oxoethyl)-N-(3-chloro-4-fluorophenyl)-N-methyl-3-(6-methyl-4-(trifluoromethyl)-pyridin-2-yl)-2-oxoimidazolidine-4-carboxamide] reads 13 nM.
